Measurements taken from the supplement of paper PMC13380429.

Tests used:
Details in all cases: 72 h
[1] = test system: Caco-2; experiment: cell viability relative to DMSO; higher = less toxic
[2] = test system: Calu-3; experiment: as above
[3] = test system: HepG2; experiment: as above
[4] = test system: U2OS; experiment: as above
[5] = test system: Vero E6; experiment: as above
[6] = test system: Calu-3; experiment: relative viability EC50 (midpoint between 100% and the lowest measured viability); higher = less toxic
[7] = test system: HepG2; experiment: as above
[8] = test system: U2OS; experiment: as above
[9] = test system: Caco-2; experiment: drug sensitivity score (DSS) for viability; higher = more toxic; extreme values may be limits of the assay
[10] = test system: Calu-3; experiment: as above
[11] = test system: HepG2; experiment: as above
[12] = test system: U2OS; experiment: as above
[13] = test system: Vero E6; experiment: as above
[14] = test system: Vero E6; experiment: relative viability EC50 (midpoint between 100% and the lowest measured viability); higher = less toxic

SMILES	cell viability ([1]; 1 nM) [%]	cell viability ([1]; 10 nM) [%]	cell viability ([1]; 100 nM) [%]	cell viability ([1]; 1000 nM) [%]	cell viability ([1]; 10000 nM) [%]	cell viability ([2]; 1 nM) [%]	cell viability ([2]; 10 nM) [%]	cell viability ([2]; 100 nM) [%]	cell viability ([2]; 1000 nM) [%]	cell viability ([2]; 10000 nM) [%]	cell viability ([3]; 1 nM) [%]	cell viability ([3]; 10 nM) [%]	cell viability ([3]; 100 nM) [%]	cell viability ([3]; 1000 nM) [%]	cell viability ([3]; 10000 nM) [%]	cell viability ([4]; 1 nM) [%]	cell viability ([4]; 10 nM) [%]	cell viability ([4]; 100 nM) [%]	cell viability ([4]; 1000 nM) [%]	cell viability ([4]; 10000 nM) [%]	cell viability ([5]; 1 nM) [%]	cell viability ([5]; 10 nM) [%]	cell viability ([5]; 100 nM) [%]	cell viability ([5]; 1000 nM) [%]	cell viability ([5]; 10000 nM) [%]	relative viability EC50 [6] [nM]	relative viability EC50 [7] [nM]	relative viability EC50 [8] [nM]	drug sensitivity score [9]	drug sensitivity score [10]	drug sensitivity score [11]	drug sensitivity score [12]	drug sensitivity score [13]	relative viability EC50 [14] [nM]
Cn1cnc2c(F)c(Nc3ccc(Br)cc3F)c(C(=O)NOCCO)cc21 [binimetinib]	94	87.3	77.2	73	65.6	94.7	77.5	66.4	59.9	37.2	96	83.6	38	23.7	20.8	97.9	91.4	92	93.4	43.9	97.2	92.4	72.6	56.5	51.2	78	32.3	2200	8.1	14.1	23.5	4.1	11.5	
CCNC(=O)[C@@H]1CCCN1C(=O)[C@H](CCCNC(=N)N)NC(=O)[C@H](CC(C)C)NC(=O)[C@@H](CC(C)C)NC(=O)[C@H](Cc1ccc(O)cc1)NC(=O)[C@H](CO)NC(=O)[C@H](Cc1c[nH]c2ccccc12)NC(=O)[C@H](Cc1c[nH]cn1)NC(=O)[C@@H]1CCC(=O)N1 [leuprolide]	107	114	107	114	72.2	99.5	99.3	95	110	103						92.6	96.9	103	97	102	102	99.3	98.6	105	105	> 10000		> 10000	0.7	0		0	0	> 10000
COC(=O)CCC(=O)CN [methyl-aminolevulinate]						101	96.5	98	100	93.4	83.8	98.4	94.5	84	87.8	90.5	96	96.8	97.3	104	97.1	89	99.5	88.8	105	> 10000	> 10000	> 10000		0	0	0	0	> 10000
CC(C)CCN1c2nc(Nc3cc(F)c(O)c(F)c3)ncc2N(C)C(=O)[C@@H]1C [BI-D1870]	95.1	102	97.5	96.6	71.1	96	107	90.2	83.7	63.1	105	92.8	102	97.6	58.9	102	103	99	98.7	71.4	105	98.7	96.5	86.2	30.9				1.8	3.5	2.4	1.4	6.1	1740
CCN1CCN(C(=O)Cc2ccc(Nc3ncc(F)c(Nc4ccc(C(=O)Nc5ccccc5Cl)cc4)n3)cc2)CC1 [aurora-a-inhibitor-i]	101	93.4	95.5	98	74.9	101	103	109	94.8	84.5	91.2	90.7	89.6	93.9	64.8	100	99.8	99.2	99.1	12	97	106	99.6	93.4	86.8	> 10000		3090	1.2	0.7	2.7	5	0.4	> 10000
Clc1ccc(C2(c3ccc(-c4cn[nH]c4)cc3)CCNCC2)cc1 [AT7867]	103	93.3	105	98.2	73.9	99.7	98.7	110	132	79.5	102	101	97.6	84.9	54.2	103	95.1	94.9	90.3	34.8	100	97	97.5	84.9	39.8	> 10000		2000	1.3	0.2	4.4	5.2	5.6	1550
O=C(c1cn(Cc2cncn2Cc2ccc(Br)cc2)cc1-c1cccc2ccccc12)N1CCOCC1	99.1	96.1	94.4	78.1	63.5	104	96.7	98.6	68.1	72.1	107	90.6	98.3	57.1	16.3	97.3	99.4	90.5	80.3	39.9	99.8	97.7	95.4	88.1	64.5		972	1490	4.3	5.6	9.8	5.5	2.9	
